Common to all, as to type: cell-based
The test system of test [1] is Cupriavidus metallidurans MSR33. Description: Minimum inhibitory concentration (MIC) of heavy metals in agar plates, strain MSR33. The following applies: for Improved resistance (fold): MIC of MSR33 relative to CH34; for MIC, strain MSR33: agar plates, Tris mineral salts medium, increasing metal concentrations. From the text:
(§1) The increase of the heavy metal resistance of the novel strain Cupriavidus metallidurans MSR33 was confirmed measuring minimum inhibitory concentration (MIC) of heavy metals in agar plates containing Tris mineral salts medium supplemented with increasing heavy metal concentrations and the organomercurial compound methylmercury.

The test system of test [2] is Cupriavidus metallidurans CH34. Description: Minimum inhibitory concentration (MIC) of heavy metals in agar plates, strain CH34. Conditions: Tris mineral salts medium, increasing metal concentrations.
Source text: as §1

The test system of test [3] is Cupriavidus metallidurans MSR33. The test can be described thus: Growth in Tris mineral salts medium with Hg(II) added at mid-exponential phase, strain MSR33. The following applies: Hg(II) 8 μg/g added at mid-exponential phase, succinate. The method, then:
(§2) To characterize the novel mercury resistance capabilities, the recombinant strain Cupriavidus metallidurans MSR33 was grown in minimal medium supplemented with succinate as sole carbon source and energy and in the presence or absence of mercury. Cupriavidus metallidurans strain CH34 was also grown in these conditions.
(§3) The growth of both strains is similar in absence of Hg (II).

The subject of test [4] is Cupriavidus metallidurans strain CH34. Description: Growth in Tris mineral salts medium with Hg(II) added at exponential phase, strain CH34. The following applies: Hg^2+ 8 μg/g added at exponential phase, succinate. The method, then:
as §2, §3

Molecules are shown by their SMILES.

With `[Cd+2]` [Cd^2+], in test [1], the “Improved resistance (fold)” value is listed as 1.6 fold and the “MIC, strain MSR33” value was determined as 160 µg/g. For the same molecule, the “MIC, strain CH34” value in test [2] (parental strain CH34) stood at 100 µg/g.

As for `[CH3][Hg][Cl]` [MeHg^+, methylmercury], the “Improved resistance (fold)” value in test [1] is recorded as more than 18.0 fold. In test [1], the “MIC, strain MSR33” value worked out at 18 µg/g. Moreover, the “MIC, strain CH34” value in test [2] (parental strain CH34) is less than 1 µg/g; in test [2] (parental strain CH34, listed as CH3Hg^+), “sensitive”.

Turning to `[Hg+2]` [Hg^2+], in test [1], the “Improved resistance (fold)” value was found to be 2.4 fold and the “MIC, strain MSR33” value was 24 µg/g. For the same molecule, the “MIC, strain CH34” value in test [2] (parental strain CH34) turned out to be 10 µg/g. Moreover, the “effect on growth of strain MSR33” value in test [3] is “do not affect the growth”. In addition, in test [4], the “effect on growth of strain CH34” value was “no further growth”.

As to `[Cu+2]` [Cu^2+], in test [1], the “MIC, strain MSR33” value came to 240 µg/g. For the same molecule, in test [2] (parental strain CH34), the “MIC, strain CH34” value came to 240 µg/g.
